In PMC11785640, “Structure-based inhibition of acetylcholinesterase and butyrylcholinesterase with 2-Aryl-6-carboxamide benzoxazole derivatives: synthesis, enzymatic assay, and in silico studies” (Molecular Diversity, 2024):

Assays:
[1] = biological target: AChE (Electrophorus electricus, UniProt O42275); experiment: biochemical; assay type: biochemical; settings: for Ki: from Lineweaver-Burk graphs, mean ± SD, triplicate; for Selectivity index (AChE/BChE): ratio AChE/BChE
Protocol: (§1) These analogs were dissolved in DMSO at an initial concentration of 1 mg/mL. Around 1% of DMSO was present in the final reaction mixture. Acetylthiocholine iodide (AChI)/butyrylcholine iodide (BChI) were used as substrates for enzymatic reactions. […] The mixture was incubated at 20 °C for 20 min. Then, 50 µL of 5,5’-dithio-bis 2-nitro-benzoic acid (DTNB, 0.5 mM) and AChI/BChI were added and enzymatic reactions were initiated.
(§2) Lineweaver-Burk graphs were used for the calculation of Ki and the other parameters as described in prior studies. The Ki values were taken out from this graph. All analyses were conducted independently in triplicate, and result data are expressed as mean values ± SD [59].

[2] = biological target: BChE (Equus caballus, UniProt P81908); experiment: biochemical; assay type: biochemical; settings: for Ki: from Lineweaver-Burk graphs, mean ± SD, triplicate
Protocol: as §1, §2

BChE, sequence (P81908 whole entry): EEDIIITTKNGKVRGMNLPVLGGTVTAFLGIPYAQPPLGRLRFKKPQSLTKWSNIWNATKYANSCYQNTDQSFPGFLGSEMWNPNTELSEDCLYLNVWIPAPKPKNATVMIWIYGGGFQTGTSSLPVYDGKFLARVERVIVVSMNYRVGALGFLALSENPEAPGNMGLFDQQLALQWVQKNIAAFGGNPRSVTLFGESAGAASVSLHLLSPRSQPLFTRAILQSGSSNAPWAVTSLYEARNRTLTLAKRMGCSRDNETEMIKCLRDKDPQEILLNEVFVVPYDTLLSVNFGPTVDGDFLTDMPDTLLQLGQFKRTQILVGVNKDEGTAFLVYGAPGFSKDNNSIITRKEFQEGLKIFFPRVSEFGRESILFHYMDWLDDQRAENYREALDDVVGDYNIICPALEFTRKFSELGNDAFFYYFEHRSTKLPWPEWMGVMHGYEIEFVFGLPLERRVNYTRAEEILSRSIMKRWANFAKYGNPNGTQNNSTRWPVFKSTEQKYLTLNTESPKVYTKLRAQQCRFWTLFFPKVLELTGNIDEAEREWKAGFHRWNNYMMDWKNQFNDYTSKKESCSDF
AChE, sequence (O42275 24-633): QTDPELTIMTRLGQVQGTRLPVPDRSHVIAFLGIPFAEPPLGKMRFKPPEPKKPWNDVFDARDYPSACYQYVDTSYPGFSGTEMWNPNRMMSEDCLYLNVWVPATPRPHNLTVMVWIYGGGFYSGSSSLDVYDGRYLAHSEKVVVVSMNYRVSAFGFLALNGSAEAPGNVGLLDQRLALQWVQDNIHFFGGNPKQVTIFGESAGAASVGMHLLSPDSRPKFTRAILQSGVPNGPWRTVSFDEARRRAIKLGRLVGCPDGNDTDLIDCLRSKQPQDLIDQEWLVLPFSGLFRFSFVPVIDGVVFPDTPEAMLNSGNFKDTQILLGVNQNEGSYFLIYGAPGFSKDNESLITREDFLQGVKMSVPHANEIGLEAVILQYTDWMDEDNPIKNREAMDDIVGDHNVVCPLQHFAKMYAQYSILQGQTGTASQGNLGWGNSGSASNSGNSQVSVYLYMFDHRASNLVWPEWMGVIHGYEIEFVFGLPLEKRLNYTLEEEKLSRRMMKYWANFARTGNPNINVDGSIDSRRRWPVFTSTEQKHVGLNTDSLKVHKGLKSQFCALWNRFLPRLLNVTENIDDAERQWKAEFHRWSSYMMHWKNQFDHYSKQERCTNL

Row | SMILES | IC50 [1] [nM] | Ki [1] [nM] | Selectivity index (AChE/BChE) [1] | IC50 [2] [nM] | Ki [2] [nM] | type of inhibition, AChE [1] | type of inhibition, BChE [2]
1 | O=C(c1ccc2nc(-c3cccc4ccccc34)oc2c1)N1CCCC1 [Compound 22] | 43 | 41.9 ± 5.64 | 0.58 | 124 | 72.5 ± 5.66 | – | –
2 | CN(C)C(=O)c1ccc2nc(-c3ccc[nH]3)oc2c1 [Compound 31, N,N-dimethyl-2-(1 H-pyrrol-2-yl)benzo[d]oxazole-6-carboxamide] | 36.8 | 30.7 ± 2.21 | 0.73 | 47.3 | 42 ± 6.32 | – | –
3 | O=C(c1ccc2nc(-c3ccccc3)oc2c1)N1CCOCC1 [Compound 12] | 29.6 | 28.6 ± 3.96 | 0.88 | 34.5 | 32.3 ± 3.25 | – | –
4 | O=C(c1ccc2nc(-c3ccncc3)oc2c1)N1CCOCC1 [Compound 30, Morpholino(2-(pyridin-4-yl)benzo[d]oxazol-6-yl)methanone] | 24.3 | 18.3 ± 4.37 | 0.40 | 49.7 | 45.4 ± 3.04 | – | –
5 | CCN(CC)C(=O)c1ccc2nc(-c3ccccc3)oc2c1 [Compound 8, N,N-diethyl-2-phenylbenzo[d]oxazole-6-carboxamide] | 34 | 30.6 ± 3.34 | 0.40 | 74 | 77 ± 5.25 | – | –
6 | O=C(c1ccc2nc(-c3ccco3)oc2c1)N1CCCC1 [Compound 40] | 52.1 | 34.9 ± 7.28 | 0.36 | 101 | 95.6 ± 20.2 | – | –
7 | O=C(c1ccc2nc(-c3ccc[nH]3)oc2c1)N1CCOCC1 [Compound 36, (2-(1 H-pyrrol-2-yl)benzo[d]oxazol-6-yl)(morpholino)methanone] | 12.6 | 7.74 ± 0.75 | 0.38 | 25.4 | 20.3 ± 1.56 | mixed-type | mixed-type
8 | CN(C)C(=O)c1ccc2nc(-c3ccccc3)oc2c1 [Compound 7, N,N -dimethyl-2-phenylbenzo[d]oxazole-6-carboxamide] | 32.9 | 23 ± 1.7 | 0.45 | 65.8 | 50.7 ± 6.43 | – | –
9 | O=C(c1ccc2nc(-c3ccc[nH]3)oc2c1)N1CCCCC1 [Compound 35, (2-(1 H-pyrrol-2-yl)benzo[d]oxazol-6-yl)(piperidin-1-yl)methanone] | 19 | 12.3 ± 1.28 | 0.27 | 49.2 | 44.5 ± 7.43 | – | –
10 | CCCN(CCC)C(=O)c1ccc2nc(-c3ccncc3)oc2c1 [Compound 27, N,Ndipropyl-2-(pyridin-4-yl)benzo[d]oxazole-6-carboxamide] | 49.5 | 50 ± 5.13 | 0.72 | 87.1 | 69.7 ± 4.1 | – | –
11 | CCN(CC)C(=O)c1ccc2nc(-c3ccc(-c4ccccc4)cc3)oc2c1 [Compound 14] | 30.8 | 19.8 ± 3.69 | 0.26 | 84.6 | 75.3 ± 13.8 | – | –
12 | CCN(CC)C(=O)c1ccc2nc(-c3cccc4ccccc34)oc2c1 [Compound 20, N,Ndiethyl-2-(naphthalen-1-yl)benzo[d]oxazole-6-carboxamide] | 53.6 | 48.5 ± 9.97 | 0.36 | 174 | 136 ± 30.7 | – | –
13 | CCCN(CCC)C(=O)c1ccc2nc(-c3cccs3)oc2c1 [Compound 45, N,Ndipropyl-2-(thiophen-2-yl)benzo[d]oxazole-6-carboxamide] | 30.1 | 21.8 ± 1.45 | 0.30 | 85.2 | 72.5 ± 12.6 | – | –
14 | CCCN(CCC)C(=O)c1ccc2nc(-c3ccco3)oc2c1 [Compound 39, 2-(Furan-2-yl)-N,N-dipropylbenzo[d]oxazole-6-carboxamide] | 28 | 38.5 ± 8.48 | 0.59 | 82.2 | 65.2 ± 8.33 | – | –
15 | O=C(c1ccc2nc(-c3ccncc3)oc2c1)N1CCCC1 [Compound 28] | 40.5 | 47.9 ± 4.7 | 0.91 | 57.2 | 52.9 ± 11.7 | – | –
16 | CN(C)C(=O)c1ccc2nc(-c3ccc(-c4ccccc4)cc3)oc2c1 [Compound 13, 2-([1,1’-Biphenyl]-4-yl)-N,N-dimethylbenzo[d]oxazole-6-carboxamide] | 33.2 | 29.8 ± 1.02 | 0.46 | 63.5 | 65.4 ± 14.1 | – | –
17 | CCCN(CCC)C(=O)c1ccc2nc(-c3cccc4ccccc34)oc2c1 [Compound 21, 2-(Naphthalen-1-yl)-N,Ndipropylbenzo[d]oxazole-6-carboxamide] | 67 | 71.6 ± 12 | 0.50 | 188 | 145 ± 11.2 | – | –

Row | SMILES | IC50 [1] [nM] | Ki [1] [nM] | Selectivity index (AChE/BChE) [1] | IC50 [2] [nM] | Ki [2] [nM] | type of inhibition, AChE [1] | type of inhibition, BChE [2]
18 | O=C(c1ccc2nc(-c3ccc(-c4ccccc4)cc3)oc2c1)N1CCCC1 [Compound 16, (2-([1,1’-Biphenyl]-4-yl)benzo[d]oxazol-6-yl)(pyrrolidin-1-yl)methanone] | 26.3 | 26.7 ± 5.13 | 0.32 | 86.2 | 84 ± 12.4 | – | –
19 | CCCN(CCC)C(=O)c1ccc2nc(-c3ccc[nH]3)oc2c1 [Compound 33, N,N-dipropyl-2-(1 H-pyrrol-2-yl)benzo[d]oxazole-6-carboxamide] | 40.2 | 26.1 ± 3.35 | 0.68 | 55.5 | 38.5 ± 8.43 | – | –
20 | O=C(c1ccc2nc(-c3cccs3)oc2c1)N1CCCCC1 [Compound 47, Piperidin-1-yl(2-(thiophen-2-yl)benzo[d]oxazol-6-yl)methanone] | 24 | 22.3 ± 4.11 | 0.48 | 65.2 | 46.6 ± 2.1 | – | –
21 | CN(C)C(=O)c1ccc2nc(-c3ccco3)oc2c1 [Compound 37, 2-(Furan-2-yl)-N,N-dimethylbenzo[d]oxazole-6-carboxamide] | 46.4 | 45.7 ± 4.3 | 0.37 | 147 | 123 ± 15.3 | – | –
22 | O=C(c1ccc2nc(-c3ccco3)oc2c1)N1CCCCC1 [Compound 41] | 25.3 | 30.7 ± 6.03 | 0.41 | 80.1 | 75.5 ± 18.4 | – | –
23 | O=C(c1ccc2nc(-c3cccs3)oc2c1)N1CCOCC1 [Compound 48, Morpholino(2-(thiophen-2-yl)benzo[d]oxazol-6-yl)methanone] | 17.9 | 10.6 ± 0.58 | 0.47 | 33 | 22.7 ± 3.07 | – | –
24 | CCN(CC)C(=O)c1ccc2nc(-c3cccs3)oc2c1 [Compound 44, N,N-2-(thiophen-2-yl)benzo[d]oxazole-6-carboxamide] | 27.6 | 15.7 ± 0.85 | 0.27 | 75.4 | 61 ± 11.1 | – | –
25 | CCCN(CCC)C(=O)c1ccc2nc(-c3ccccc3)oc2c1 [Compound 9, 2-Phenyl-N,Ndipropylbenzo[d]oxazole-6-carboxamide] | 48.8 | 59.4 ± 3.69 | 0.53 | 116 | 111 ± 4.67 | – | –
26 | O=C(c1ccc2nc(-c3ccc(-c4ccccc4)cc3)oc2c1)N1CCCCC1 [Compound 17, (2-([1,1’-Biphenyl]-4-yl)benzo[d]oxazol-6-yl)(piperidin-1-yl)methanone] | 20.6 | 18.4 ± 3.33 | 0.37 | 58.9 | 49.2 ± 11.1 | – | –
27 | CN(C)C(=O)c1ccc2nc(-c3ccncc3)oc2c1 [Compound 25, N,Ndimethyl-2-(pyridin-4-yl)benzo[d]oxazole-6-carboxamide] | 54.7 | 85.3 ± 11.2 | 1.28 | 93.6 | 66.4 ± 13.6 | – | –
28 | CCN(CC)C(=O)c1ccc2nc(-c3ccc[nH]3)oc2c1 [Compound 32, N,N-diethyl-2-(1 H-pyrrol-2-yl)benzo[d]oxazole-6-carboxamide] | 41.7 | 47.5 ± 9.8 | 2.07 | 30.1 | 23 ± 1.52 | – | –
29 | CN(C)C(=O)c1ccc2nc(-c3cccc4ccccc34)oc2c1 [Compound 19, N,Ndimethyl-2-(naphthalen-1-yl)benzo[d]oxazole-6-carboxamide] | 39.6 | 38.8 ± 2.96 | 0.32 | 142 | 121 ± 15.5 | – | –
30 | O=C(c1ccc2nc(-c3ccccc3)oc2c1)N1CCCC1 [Compound 10] | 35.7 | 46.5 ± 6.59 | 1.27 | 51.4 | 36.6 ± 11 | – | –
31 | CCN(CC)C(=O)c1ccc2nc(-c3ccncc3)oc2c1 [Compound 26, N,Ndiethyl-2-(pyridin-4-yl)benzo[d]oxazole-6-carboxamide] | 48.1 | 83.1 ± 1.33 | 1.53 | 76.2 | 54.4 ± 4.85 | – | –
32 | O=C(c1ccc2nc(-c3ccc(-c4ccccc4)cc3)oc2c1)N1CCOCC1 [Compound 18, (2-([1,1’-Biphenyl]-4-yl)benzo[d]oxazol-6-yl)(morpholino)methanone] | 21.3 | 20.9 ± 4.22 | 0.37 | 65.1 | 56.7 ± 1.57 | – | –
33 | O=C(c1ccc2nc(-c3cccc4ccccc34)oc2c1)N1CCCCC1 [Compound 23] | 24.6 | 20.2 ± 1.47 | 0.29 | 98.3 | 69.4 ± 11.3 | – | –
